From patent US8829011B2 (Janssen Pharmaceutica NV, priority 2008, dated 2014)
Where a name gives a salt, the structure may show the parent alone.

Tests used:
[1] = molecular target: T1, rat 5-HT7a receptor (Rattus norvegicus, UniProt P32305); assay: Affinity for 5-HT7 receptor binding sites (competition radioligand binding, [3H]5-CT); conditions: membranes of HEK-293 cells with rat 5-HT7a; 1 nM [3H]5-CT; * = tested as hydrochloride salt
T1 construct: expressed in transfected cells; host or cells: HEK-293
Description: Stock drug solutions (10 mM) were prepared in DMSO (the final assay concentration of DMSO not exceeding 0.4%). Drug dilutions were prepared in assay buffer.
Sigmoidal inhibition curves were generated and fitted by nonlinear regression analysis (GraphPad Prism).
1. Affinity for 5-HT7 Receptor Binding Sites
The affinity of the compounds described in this invention for the 5-HT7 receptor binding site was evaluated by single competition radioligand binding assay. The assay was performed on membranes prepared from HEK-293 cells that had been subjected to stable transfection with the rat 5-HT7a receptor (GB: NM022938). Cells were scraped from the culture plates, suspended in Tris-HCl 50 mM pH 7.5 and collected through centrifugation (1000 rpm for 5 min). The cell pellets were homogenized (Polytron, 15 s, setting 5) in 50 mM Tris-HCl (pH 7.5), 5 mM EDTA. Following centrifugation (15,000 rpm for 25 min), membranes (135 μg protein/mL) were resuspended in the same buffer and incubated for 60 min at RT with 1 nM [^3H]5-CT in the presence of increasing concentration of test compounds. Nonspecific binding was defined in the presence of 10 μM 5-HT. Incubation was stopped by rapid filtration using the cell harvester (Packard). Radioactivity was counted in a TopCount-NXT (Packard). Experiments were conducted in triplicate.

[2] = molecular target: T2, human recombinant 5-HT6 receptor (Homo sapiens, UniProt P50406); assay: Affinity for 5-HT6 receptor binding sites (competitive radioligand binding, [3H]LSD); conditions: membranes of HEK-293 with h5-HT6, * = tested as hydrochloride salt
T2 construct: expressed in transfected cells; host or cells: HEK-293
Summary of the method: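 Membranes from HEK-293 cells stably expressing human 5-HT6, competition against [3H]LSD; nonspecific binding defined with 1 μM clozapine. DMSO ≤0.4% final. Inhibition curves fitted by nonlinear regression.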

[3] = molecular target: T3, human recombinant 5-HT2B receptor (Homo sapiens, UniProt P41595); assay: Affinity for 5-HT2B receptor binding sites (competitive radioligand binding, [3H]mesulergine); conditions: membranes of CHO with h5-HT2B, * = tested as hydrochloride salt
T3 construct: expressed in transfected cells; host or cells: CHO
Summary of the method: (§1)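 Membranes from NIH3T3 cells stably expressing h5-HT2A or CHO cells stably expressing h5-HT2B/h5-HT2C; [3H]ketanserin used for 5-HT2A, [3H]mesulergine for 5-HT2B/2C. Compounds from 10 mM DMSO stocks, final DMSO ≤0.4%. Affinity from sigmoidal inhibition curves fitted by nonlinear regression.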

[4] = molecular target: T4, human recombinant 5-HT2A receptor (Homo sapiens, UniProt P28223); assay: Affinity for 5-HT2A receptor binding sites (competitive radioligand binding, [3H]ketanserin); conditions: membranes of NIH3T3 with h5-HT2A, * = tested as hydrochloride salt
T4 construct: expressed in transfected cells; host or cells: NIH3T3
Summary of the method: as §1

[5] = molecular target: T5, human recombinant 5-HT2C receptor (Homo sapiens, UniProt P28335); assay: Affinity for 5-HT2C receptor binding sites (competitive radioligand binding, [3H]mesulergine); conditions: membranes of CHO with h5-HT2C, * = tested as hydrochloride salt
T5 construct: expressed in transfected cells; host or cells: CHO
T5 sequence (P28335 33-458): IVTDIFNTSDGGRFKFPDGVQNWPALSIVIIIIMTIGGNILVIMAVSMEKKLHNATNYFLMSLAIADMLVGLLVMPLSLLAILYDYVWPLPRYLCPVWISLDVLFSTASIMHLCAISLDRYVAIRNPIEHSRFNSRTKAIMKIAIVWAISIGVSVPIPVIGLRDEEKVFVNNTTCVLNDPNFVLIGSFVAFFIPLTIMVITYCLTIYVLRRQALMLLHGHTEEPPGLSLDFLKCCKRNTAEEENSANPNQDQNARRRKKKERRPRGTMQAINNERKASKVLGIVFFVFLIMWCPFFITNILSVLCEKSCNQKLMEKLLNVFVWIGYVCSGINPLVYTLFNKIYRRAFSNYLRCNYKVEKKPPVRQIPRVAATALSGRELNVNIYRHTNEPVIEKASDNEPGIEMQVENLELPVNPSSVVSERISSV
Summary of the method: as §1

T4 sequence (P28223 whole entry): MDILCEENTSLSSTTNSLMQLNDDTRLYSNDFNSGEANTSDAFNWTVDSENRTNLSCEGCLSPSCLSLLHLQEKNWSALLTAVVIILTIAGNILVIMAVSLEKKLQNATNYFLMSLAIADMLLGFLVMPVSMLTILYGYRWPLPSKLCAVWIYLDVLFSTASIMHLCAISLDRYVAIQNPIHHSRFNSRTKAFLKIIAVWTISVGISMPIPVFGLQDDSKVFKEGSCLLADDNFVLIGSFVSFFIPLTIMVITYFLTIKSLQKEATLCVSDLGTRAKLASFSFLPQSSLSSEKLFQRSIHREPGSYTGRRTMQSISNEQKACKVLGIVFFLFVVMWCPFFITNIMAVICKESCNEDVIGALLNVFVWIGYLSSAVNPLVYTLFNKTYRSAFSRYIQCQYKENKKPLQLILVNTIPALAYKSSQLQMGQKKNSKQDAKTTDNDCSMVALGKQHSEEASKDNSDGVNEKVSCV
T1 sequence (P32305 whole entry): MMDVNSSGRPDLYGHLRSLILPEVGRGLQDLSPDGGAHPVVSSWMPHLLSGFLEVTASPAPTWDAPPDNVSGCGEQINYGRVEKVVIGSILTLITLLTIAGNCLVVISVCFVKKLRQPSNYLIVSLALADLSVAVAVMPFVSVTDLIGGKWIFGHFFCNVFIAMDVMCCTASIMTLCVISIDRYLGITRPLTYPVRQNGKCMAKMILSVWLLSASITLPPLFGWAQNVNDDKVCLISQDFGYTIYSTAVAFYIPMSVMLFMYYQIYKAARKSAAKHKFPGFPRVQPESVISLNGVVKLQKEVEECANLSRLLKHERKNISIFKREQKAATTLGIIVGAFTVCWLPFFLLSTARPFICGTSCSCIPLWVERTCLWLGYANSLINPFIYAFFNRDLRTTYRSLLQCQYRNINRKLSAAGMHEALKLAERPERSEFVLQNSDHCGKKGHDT
T2 sequence (P50406 whole entry): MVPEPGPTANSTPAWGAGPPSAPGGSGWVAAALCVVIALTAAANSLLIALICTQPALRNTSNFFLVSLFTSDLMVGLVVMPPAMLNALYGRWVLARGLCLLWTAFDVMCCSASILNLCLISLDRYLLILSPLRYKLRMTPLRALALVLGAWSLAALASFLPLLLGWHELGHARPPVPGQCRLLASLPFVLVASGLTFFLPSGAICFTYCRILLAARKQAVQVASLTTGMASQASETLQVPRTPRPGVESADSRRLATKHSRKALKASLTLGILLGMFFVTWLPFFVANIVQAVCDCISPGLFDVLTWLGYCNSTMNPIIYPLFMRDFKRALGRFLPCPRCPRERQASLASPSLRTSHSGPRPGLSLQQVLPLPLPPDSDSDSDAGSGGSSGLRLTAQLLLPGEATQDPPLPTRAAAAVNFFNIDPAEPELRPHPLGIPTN
T3 sequence (P41595 whole entry): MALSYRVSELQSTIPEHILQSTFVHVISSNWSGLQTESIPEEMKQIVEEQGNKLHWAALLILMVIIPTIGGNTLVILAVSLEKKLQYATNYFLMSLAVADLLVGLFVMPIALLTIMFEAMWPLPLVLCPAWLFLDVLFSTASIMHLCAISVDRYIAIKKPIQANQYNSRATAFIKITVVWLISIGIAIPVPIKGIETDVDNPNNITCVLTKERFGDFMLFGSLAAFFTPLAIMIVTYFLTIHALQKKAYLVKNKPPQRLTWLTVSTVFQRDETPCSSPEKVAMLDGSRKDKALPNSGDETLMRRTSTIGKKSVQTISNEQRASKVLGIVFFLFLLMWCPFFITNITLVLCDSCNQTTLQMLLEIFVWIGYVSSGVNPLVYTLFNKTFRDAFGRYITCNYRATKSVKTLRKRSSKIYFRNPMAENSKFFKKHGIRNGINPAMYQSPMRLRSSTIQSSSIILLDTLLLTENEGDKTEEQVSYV

Row | Structure (SMILES) | Ki [1] | Ki [2] | Ki [3] | Ki [4] | Ki [5]
1 | C[C@H]1COCCN1c1nc2c(c(-c3ccc(F)cc3)n1)CNCC2 [Example 45, 4-(4-Fluoro-phenyl)-2-(3-methyl-morpholin-4-yl)-5,6,7,8-tetrahydro-pyrido[4,3-d]pyrimidine] | > 10000 nM | 3390 nM | 1200 nM | 24 nM | 2500 nM
2 | CCN(CC)c1nc2c(c(-c3ccc(C)cc3)n1)CCNCC2 [Example 11, Diethyl-(4-p-tolyl-6,7,8,9-tetrahydro-5H-pyrimido[4,5-d]azepin-2-yl)-amine hydrochloride] | 40 nM | 25 nM | 5 nM | 4 nM | 63 nM
3 | CCN(CC)c1nc2c(c(-c3ccc(C)cc3)n1)CCNC2 [Example 26, Diethyl-(4-p-tolyl-5,6,7,8-tetrahydro-pyrido[3,4-d]pyrimidin-2-yl)-amine] | 100 nM | 316 nM | 13 nM | 7 nM | 200 nM
4 | Cc1ccc(-c2nc(N3CCCCC3)nc3c2CNCC3)cc1 [Example 50, 2-Piperidin-1-yl-4-p-tolyl-5,6,7,8-tetrahydro-pyrido[4,3-d]pyrimidine] | 350 nM | 776 nM | 160 nM | 30 nM | 130 nM
5 | CCN(CC)c1nc2c(c(-c3ccc(OC)cc3)n1)CCNC2 [Example 28, Diethyl-[4-(4-methoxy-phenyl)-5,6,7,8-tetrahydro-pyrido[3,4-d]pyrimidin-2-yl]-amine] | 130 nM | 1510 nM | 15 nM | 70 nM | 280 nM
6 | Cc1ccc(-c2nc(N3CCCCC3C)nc3c2CCCNC3)cc1 (stereo not shown) [Example 8, 2-(2-Methyl-piperidin-1-yl)-4-p-tolyl-6,7,8,9-tetrahydro-5H-pyrimido[4,5-c]azepine] | 500 nM | 68 nM | 100 nM | 180 nM | 2000 nM
7 | CCN(CC)c1nc2c(c(-c3ccc(C#N)cc3)n1)CCCNC2 [Example 4, 4-(2-Diethylamino-6,7,8,9-tetrahydro-5H-pyrimido[4,5-c]azepin-4-yl)-benzonitrile] | 920 nM | 3750 nM | 100 nM | 240 nM | 9000 nM
8 | CC(C)N(c1nc2c(c(-c3ccc(F)cc3)n1)CNCC2)C(C)C [Example 43, [4-(4-Fluoro-phenyl)-5,6,7,8-tetrahydro-pyrido[4,3-d]pyrimidin-2-yl]-diisopropyl-amine hydrochloride] | 320 nM | 195 nM | 100 nM | 3 nM | 150 nM
9 | CCN(CC)c1nc2c(c(-c3ccc(C#N)cc3)n1)CCNC2 [Example 30, 4-(2-Diethylamino-5,6,7,8-tetrahydro-pyrido[3,4-d]pyrimidin-4-yl)-benzonitrile] | 300 nM | 3720 nM | 60 nM | 48 nM | 1400 nM
10 | CCN(CC)c1nc2c(c(-c3ccc(F)cc3)n1)CCCNC2 [Example 1, Diethyl-[4-(4-fluoro-phenyl)-6,7,8,9-tetrahydro-5H-pyrimido[4,5-c]azepin-2-yl]-amine] | 470 nM | 2260 nM | 32 nM | 20 nM | 300 nM
11 | CCN(CC)c1nc2c(c(-c3ccc(Cl)cc3)n1)CCNCC2 [Example 60, [4-(4-Chloro-phenyl)-6,7,8,9-tetrahydro-5H-pyrimido[4,5-d]azepin-2-yl]-diethyl-amine] | 41 nM | > 10000 nM | 10 nM | 20 nM | 100 nM
12 | Cc1ccc(-c2nc(N(C)C)nc3c2CNCC3)cc1 [Example 61, Dimethyl-(4-p-tolyl-5,6,7,8-tetrahydro-pyrido[4,3-d]pyrimidin-2-yl)-amine] | 9000 nM | 2290 nM | 620 nM | 420 nM | 5000 nM
13 | COc1ccc(-c2nc(N3CCCCC3C)nc3c2CCCNC3)cc1 (stereo not shown) [Example 5, 4-(4-Methoxy-phenyl)-2-(2-methyl-piperidin-1-yl)-6,7,8,9-tetrahydro-5H-pyrimido[4,5-c]azepine hydrochloride] | > 10000 nM | 127 nM | 200 nM | 1500 nM | 1800 nM
14 | CCN(CC)c1nc2c(c(-c3ccsc3)n1)CCNCC2 [Example 12, Diethyl-(4-thiophen-3-yl-6,7,8,9-tetrahydro-5H-pyrimido[4,5-d]azepin-2-yl)-amine hydrochloride] | 40 nM | 80 nM | 3.2 nM | 30 nM | 50 nM
15 | CC1CCCCN1c1nc2c(c(-c3ccc(F)cc3)n1)CCCNC2 (stereo not shown) [Example 6, 4-(4-Fluoro-phenyl)-2-(2-methyl-piperidin-1-yl)-6,7,8,9-tetrahydro-5H-pyrimido[4,5-c]azepine] | > 10000 nM | 310 nM | 200 nM | 200 nM | 1000 nM
16 | Cc1ccc(-c2nc(N3CCCC3)nc3c2CN(C)CC3)cc1 [Example 52, 6-Methyl-2-pyrrolidin-1-yl-4-p-tolyl-5,6,7,8-tetrahydro-pyrido[4,3-d]pyrimidine] | > 10000 nM | 977 nM | 500 nM | 120 nM | 500 nM
17 | CCN(CC)c1nc2c(c(-c3ccc(OC)cc3)n1)CCNCC2 [Example 13, Diethyl-[4-(4-methoxy-phenyl)-6,7,8,9-tetrahydro-5H-pyrimido[4,5-d]azepin-2-yl]-amine hydrochloride] | 32 nM | 28 nM | 0.8 nM | 10 nM | 40 nM
18 | CCN(CC)c1nc2c(c(-c3ccc(F)cc3)n1)CCNC2 [Example 24, Diethyl-[4-(4-fluoro-phenyl)-5,6,7,8-tetrahydro-pyrido[3,4-d]pyrimidin-2-yl]-amine] | 50 nM | 933 nM | 7 nM | 3 nM | 120 nM
19 | Fc1ccc(-c2nc(N3CCOCC3)nc3c2CNCC3)cc1 [Example 42, 4-(4-Fluoro-phenyl)-2-morpholin-4-yl-5,6,7,8-tetrahydro-pyrido[4,3-d]pyrimidine] | > 10000 nM | 9770 nM | 2050 nM | 20 nM | 500 nM
20 | CCNc1nc2c(c(-c3ccc(C)cc3)n1)CNCC2 [Example 48, Ethyl-(4-p-tolyl-5,6,7,8-tetrahydro-pyrido[4,3-d]pyrimidin-2-yl)-amine] | > 10000 nM | > 10000 nM | 3000 nM | 2000 nM | > 10000 nM
21 | Cc1ccc(-c2nc(N3CCOCC3)nc3c2CNCC3)cc1 [Example 49, 2-Morpholin-4-yl-4-p-tolyl-5,6,7,8-tetrahydro-pyrido[4,3-d]pyrimidine] | 530 nM | 2090 nM | 5010 nM | 100 nM | 630 nM
22 | Cc1ccc(-c2nc(NCc3ccccc3)nc3c2CNCC3)cc1 [Example 51, Benzyl-(4-p-tolyl-5,6,7,8-tetrahydro-pyrido[4,3-d]pyrimidin-2-yl)-amine] | 320 nM | 912 nM | 700 nM | 75 nM | 100 nM
23 | CC1CCCN1c1nc2c(c(-c3ccc(F)cc3)n1)CNCC2 (stereo not shown) [Example 38, 4-(4-Fluoro-phenyl)-2-(2-methyl-pyrrolidin-1-yl)-5,6,7,8-tetrahydro-pyrido[4,3-d]pyrimidine hydrochloride] | > 10000 nM | 1950 nM | 50 nM | 1.9 nM | 65 nM
